Experimental data taken from EPA's ToxValDB 9.5 (doi:10.2903/j.efsa.2009.1415).
Converted amounts (≈) assume the structure as drawn.

Legend:
[1] = system: Typhlodromus pyri; assay: LR50; higher = less toxic; conditions: not reported; mortality
[2] = system: Daphnia magna; conditions: chronic/long-term; duration: 21 days; reproduction
[3] = system: Cyprinus carpio; conditions: acute; duration: 96 hours; mortality
[4] = system: Rattus norvegicus
[5] = system: Pimephales promelas; conditions: chronic/long-term; duration: 35 days; growth
[6] = system: Colinus virginianus
[7] = system: Apis mellifera; conditions: acute; duration: 48 hours; dermal; mortality
[8] = system: Anas platyrhynchos; conditions: short-term; oral; feed; mortality

Structure (SMILES): CCCOCC(=Nc1ccc(Cl)cc1C(F)(F)F)n1ccnc1 [Triflumizole]
- LR50 [1]: 63 g/ha
- NOEC [2]: 0.18 mg/L
- LC50 [3]: 1.28 µg/mL (≈ 3.7 µM)
- LD50 ([4]; acute, oral, mortality): 1060 mg/kg-day
- NOAEL ([4]; chronic, duration: 2 years, organ weight): 3.5 mg/kg-day
- NOAEL ([4]; developmental, development): 10 mg/kg-day
- NOAEL ([4]; reproduction developmental, reproduction): 4.8 mg/kg-day
- NOAEL ([4]; subchronic, duration: 90 days, organ weight): 4.1 mg/kg-day
- NOEC [5]: 0.044 mg/L
- LD50 ([6]; acute, oral, mortality): > 2510 mg/kg-day
- NOEC ([6]; reproduction developmental): ≥ 97.2 mg/kg-day
- LD50 [7]: > 20 µg/piece
- LC50 [8]: > 1430 mg/kg-day
